Test results reported in a melting point compilation (Tetko et al.; mined from patent text by program, amines drawn as free bases though some values may be those of a salt).

Row | Structure (SMILES) | melting point [°C]
1 | O=C(Nc1cccc(C(F)(F)F)c1)c1cccc2cc(OS(=O)(=O)C(F)(F)F)ccc12 | 177 to 178
2 | CCN1CCc2cc(OC)c(OC)cc2C1C1CC(C(=O)N2CCN(c3ccccn3)CC2)CCC12c1cc(OC)c(OC)cc1CCN2CC (stereo not given) | 115 to 117
3 | Nc1cc(-c2noc(-c3cnn4c(C(F)(F)F)cc(-c5ccc(Cl)c(Cl)c5)nc34)n2)ccn1 | 262
4 | CCCCCCCCCCCCCCCc1ccc(C(=O)O)c(O)c1 | 96 to 97
5 | COC(=O)c1ccc(CSc2nnc(-c3ccc4c(c3)CCO4)o2)cc1 | 125 to 126
6 | Cc1nc(N)c2ncn(N(C)C)c2c1C | 205 to 207
7 | Nc1ccccc1C(=O)NN1CCOCC1 | 172
8 | Cc1nnc2n1-c1ccc(C(=O)O)cc1C(c1ccccc1Cl)=NC2 | 169 to 173
9 | CCC1CCCCN1CCC(=O)Nc1ccc2c(=O)c3ccc(NC(=O)CCN4CCCCC4CC)cc3[nH]c2c1 (stereo not given) | > 320
10 | FC(F)(F)c1ccc(-c2cc(C(F)(F)F)n3ncc(I)c3c2)cc1 | 130
11 | O=S(=O)(Nc1ccc2c(OCc3ccc(-c4ccc(Cl)c(Cl)c4)cc3F)cccc2c1)C(F)(F)F | 172 to 174
12 | CN(C)Nc1cc(F)ccc1[N+](=O)[O-] | 67 to 71
13 | O=C1C(=O)N2c3c(cccc31)OCC2c1ccccc1 (stereo not given) | 169 to 171
14 | CC1(c2ccccc2)C(=O)Nc2ccccc2C1=O (stereo not given) | 194 to 196
15 | O=Cc1ccc2c(c1)Sc1cc(C=O)ccc1N2c1ccccc1 | 194 to 198
16 | O=C(O)CCc1cn(Cc2ccccc2)c2ccccc12 | 110 to 112
17 | Cc1ccnc2c1N=C(C#N)c1cccnc1N2C1CC1 | 192 to 193
18 | COc1cc(Br)c(-n2c(=O)[nH]c3c(-c4ccccc4C(F)(F)F)nc(C)nc32)c(OC)c1 | 255 to 256
19 | Cc1c(NC(=O)c2ccc(-c3ccccc3)cc2)ccc2cc(CN3CCCC3)cnc12 | 184 to 186
20 | c1csc(-c2cccc3c(-c4cccs4)cccc23)c1 | 193 to 195
21 | O=C(O)COc1ccc(SCc2ccc(-c3ccc(C(F)(F)F)cn3)cc2)c2c1CCCO2 | 178 to 179
22 | COC(=O)[C@H](COC(C)(C)C)NC(=O)[C@@H](NC(=O)[C@H](Cc1ccccc1)NC(=O)[C@@H](NC(=O)OCc1ccccc1)[C@@H](C)OC(C)(C)C)[C@@H](C)OC(C)(C)C | 114 to 115
23 | Cc1cc(O)c(O)cc1S(=O)(=O)c1ccc(Cl)c([N+](=O)[O-])c1 | 196 to 197
24 | CC/C(=C\C#CC(O)(C(F)(F)F)C(F)(F)F)c1cccc(CCc2ccc(CO)c(CO)c2)c1 | 123
25 | Cc1ccc(S(=O)(=O)C2=CC3C=CC2N3C(=O)OC(C)(C)C)cc1 (stereo not given) | 94 to 99
26 | Cc1cc(C)nc([NH+]([O-])C(=O)Cc2ccsc2)c1 (stereo not given) | 154
27 | C=CCOC1CCC2C3CCC4CC(=O)CCC4(C)C3CCC12C (stereo not given) | 122 to 124

Row | Structure (SMILES) | melting point [°C]
28 | COc1ccc2c(c1)C(O)C(Cc1ccc(OC)c(OC3CC4CCC3C4)c1)CO2 (stereo not given) | 115 to 117
29 | CNC(=S)N1CC(c2ccccc2)C(c2ccc(Cl)cc2)=N1 (stereo not given) | 181 to 183
30 | C=CCN(CC=C)C(=O)Nc1cc(C)c(S(=O)(=O)C[N+](=O)[O-])c(C)c1 | 127 to 129
31 | CCn1ncc2c(Cl)c3cc(S(C)(=O)=O)ccc3nc21 | 158 to 160
32 | CN(C)Cc1cccc(-c2[nH]c3cccc4c3c2CCNC4=O)c1 | 222 to 225
33 | Cc1ccsc1C(=O)NP(N)(N)=O | 267 to 275
34 | OCCCc1cnoc1-c1ccc(Br)cc1 | 72 to 73
35 | CCCCCCCCCCCCOc1cc(C#N)c(C#N)cc1OCCOCCOCCOC | 38 to 40
36 | O=C(O)C(=O)CC(=O)c1ccc(C2CCCCC2)cc1 | 140 to 142
37 | CC(C)(C)n1ncc(OCc2ccc(Oc3ccc(Cl)cc3)nc2)c(Cl)c1=O | 150 to 154
38 | CCCCCCCOc1ccc(C2CC(CCCCCC)C(=O)O2)cc1 (stereo not given) | 45.9 to 47
39 | O=C(CS(=O)C(c1ccc(F)cc1)c1ccc(F)cc1)NO (stereo not given) | 90 to 91
40 | c1ccc(-c2nn3c(N4CCCC4)nnc3c3ccccc23)cc1 | 245 to 247
41 | CC(=O)OC1CCC2(C)C(=CC(=O)C3C4CC(OC(C)=O)C(=O)C4(C)CCC32)C1 (stereo not given) | 206
42 | O=C1CC(c2cccc(-n3ccnc3)c2)=Nc2ccc(-c3ccccc3)cc2N1 | 201 to 205
43 | Cc1cccc(Cl)c1N1Cc2cnc(Nc3ccccc3)nc2N(c2cccc(CCN)c2)C1=O | 192
44 | CCCCCCn1c2c(c(=O)n3nc(-c4ccccc4)cc13)CN(C1CCCCC1)C2=O | 162 to 164
45 | OCCOc1ccc(-c2nc(-c3ccc(OCCO)cc3O)nc(-c3ccc(OCCO)cc3O)n2)c(O)c1 | 195
46 | COc1cc2[nH]nc(CN3CCN(c4ccccc4OC)CC3)c2cc1OC | 192
47 | CCN1CCCCC1c1ccccc1C=CC(=O)Nc1ccccc1 (stereo not given) | 120 to 122
48 | Brc1ccccc1P(c1cccc2ccccc12)c1cccc2ccccc12 | 206 to 207
49 | Oc1ccc(-c2nc(-c3ccc(F)cc3)c(-c3ccncc3)[nH]2)cc1 | 214 to 215
50 | CC(=O)OC1CCC2(C)C(CCC3C2C(=O)CC2(C)C3CCC23OCCO3)C1 (stereo not given) | 116 to 123
51 | CN(C)N=Nc1cc([N+](=O)[O-])sc1C(N)=O | 240 to 246
52 | Ic1cc(I)cc(Cc2cc(I)cc(I)c2)c1 | 104 to 107
53 | O=C(O)CCC(=O)Nc1ccc(N2CCN(C3(c4ccc(-c5ccccc5)cc4)C(=O)NC(=O)NC3=O)CC2)cc1 | 246 to 247
54 | NS(=O)(=O)c1cc(S(N)(=O)=O)c(C(Cl)=C(Cl)Cl)cc1NCc1ccccc1 | 188 to 190

Now from value to compound:

Row | melting point [°C] | Structure (SMILES)
55 | 132 to 134 | COC(=O)C(C)(C)OCc1cc2cc(Cl)ccc2n1S(=O)(=O)c1cc(OC)ccc1OC
56 | 218 to 220 | CC(C)(C)OC(=O)NC(C)(C)c1ccc(-c2nc(Nc3ccc(-n4ccnc4)cc3)ncc2Cl)cc1
57 | 240 | O=C(O)Cc1cc(C(=O)Cc2c(F)cccc2Cl)ccc1O
58 | 160 to 163 | CCOC(=O)C(C)Oc1cc(N=C(C(N)=O)N2CCCC2)c(Cl)cc1Cl (stereo not given)
59 | 130 to 131 | O=C(CSCc1c[nH]c2ccccc12)N1CC=C(c2cccc(F)c2)CC1
60 | 204 to 206 | CSC1=NC(c2cccc([N+](=O)[O-])c2)C2=C(COC2=O)N1 (stereo not given)
61 | 225 to 227 | CC1CC(=O)NN=C1c1ccc(NC(=O)C(C)(C)C#N)cc1 (stereo not given)
62 | 206 | CNC(=O)C=C(C)C=CC=C(C)C=Cc1c(C)cc(OC)c(C)c1C
63 | 215 to 216 | CC(=O)CCNc1cc(C(=O)O)cc(S(N)(=O)=O)c1Oc1ccccc1
64 | 228 | COc1cc(C)c(S(C)(=O)=O)cc1C(=O)O
65 | 148 to 150 | CC1=C(c2ccncc2)CC(C)C(=O)N1 (stereo not given)
66 | 200 | COc1cc(C)cc(-c2nn(CC#N)cc2-c2cc(NC[C@H](C)O)nc(-c3cccnc3)n2)c1
67 | 106 to 110 | CCCCn1c(=O)c(NC(=O)Nc2c(C(C)C)cccc2C(C)C)c(-c2cccc(OCCO)c2)c2cccnc21
68 | 195 to 197 | CCCOc1ccccc1-c1ncc(NC(C)=O)c(=O)[nH]1
69 | 32 | CC(C)(C)OC(=O)Nc1cc(OCC2COC(C)(C)O2)c(C#Cc2ccccc2)cc1[N+](=O)[O-] (racemic)
70 | 228 to 230 | O=C(O)c1ccc(COCc2csc3nc(C(=O)NCc4ccc(F)c(Cl)c4)[nH]c(=O)c23)cc1
71 | 220 to 222 | CCCNC(=O)N(C)Cc1cccc2c1CN(C1CCC(=O)NC1=O)C2=O (stereo not given)
72 | 138 | Cn1c([N+](=O)[O-])cnc1COc1ccc([N+](=O)[O-])cc1Cl
73 | 188 to 190 | CC(C)(O)c1cccn2c(-c3ccnc(NC4CCC(C(=O)N5CCC(O)CC5)CC4)n3)cnc12 (stereo not given)
74 | 119 to 121 | CSc1ncccc1C1C(C(=O)OC(C)C)=C(C)NC(=S)N1C(=O)OC(C)C (stereo not given)
75 | 169 to 171 | O=C(NCc1cccnc1)c1ccc2n1Cc1ccccc1N(C(=O)COc1ccc(Cl)cc1)C2

Row | melting point [°C] | Structure (SMILES)
76 | 80 to 81 | COC(=O)Cc1ccccc1OCc1cc(OCCc2nc(-c3ccccc3)sc2C)no1
77 | 123 to 124 | COc1ccc(-n2nc(Sc3cccc(Cl)c3)c(C)c(C#N)c2=O)cc1
78 | 175 | COC(=O)c1cscc1Nc1ccc(C(F)(F)F)cc1[N+](=O)[O-]
79 | 129 to 130 | COC(=O)C(=CO)N(C)C(=O)C=Cc1ccccc1Cl
80 | 230 | Cc1cc(C)cc(-c2nnc(C(N)=O)o2)c1
81 | 263 to 265 | CS(=O)(=O)Nc1c(O)ccc2c1CCCC2C1=NCCN1 (stereo not given)
82 | 196 | CCOC(=O)N1CCN(c2ccc(-n3cnn(C(CC)C(O)c4ccc(Cl)cc4)c3=O)cn2)CC1 (stereo not given)
83 | 186 to 188 | COC(=O)OC1=C(c2cc(C)ccc2C)C(=O)NC12CCN(OC)CC2
84 | 53 to 55 | CC(C)c1nc2ccc(C=O)cc2nc1C(C)C
85 | 282 to 284 | CNC(=O)c1ccccc1Nc1nc(Nc2cccc3c2N(C)CCNC3=O)ncc1Cl
86 | 236 to 240 | CCOC(=O)C1CN2c3c(c(F)c(F)c(F)c3C1=O)CCN2C (stereo not given)
87 | 122 to 125 | CC(=O)SC(CC(=O)c1ccc(Oc2cccc(Cl)c2)cc1)C(=O)O (stereo not given)
88 | 98 | CC#CCOc1ccc(S(=O)(=O)C2(C(=O)O)CCN(C(CC)CC)CC2)cc1
89 | 152 to 155 | Cc1c(NC(=O)NCCO)c(C)c2c(c1-c1ccccc1)OCC2c1ccc(C(C)C)cc1 (stereo not given)
90 | 132 | COC(=O)c1ccc(Cc2cc3cc(C(F)(F)F)ccc3n2S(=O)(=O)c2ccc(C(C)C)cc2)cc1F
91 | 48 to 50 | CN(C)Cc1cccc(OCCCNC(=O)COC(=O)c2ccc(Cl)c(Cl)c2)c1
92 | 167 to 168 | CC(=O)N1CCC(C(=NO)c2ccc(Cl)cc2Cl)CC1
93 | 168 to 169 | COC(=O)c1ccc(C(=O)O)cc1C(=O)OC
94 | 168 to 170 | COc1cc2ncnc(N3CCN(C(=O)NCc4ccco4)CC3)c2cc1OC
95 | 129 | C#CCOC(=O)C1=C(C)NC(C)=C(C(=O)OCC)C1c1ccccc1C (stereo not given)
